Values quoted from earlier work, collected in article PMC7036871, “Identification and Characterization of pantocin wh-1, a Novel Cyclic Polypeptide Produced by Pantoea dispersa W18” (Molecules, 2020).
In brackets after ≈: the same amount, converted by molar mass. Where two headings read alike, the source gives them in different places.

System: M. tuberculosis
Parameters: method as in 8 sources, ref [15],[16] = [15]; PMID 24684906; doi:10.1016/j.chembiol.2014.01.014; 15. Gavrish E. Sit C.S. Cao S. Kandror O. Spoering A. Peoples A. Ling L. Fetterman A. Hughes D. Bissell A. Lassomycin, a ribosomally synthesized cyclic peptide, kills mycobacterium tuberculosis by tar || [16]; PMID 24766844; doi:10.1016/j.chembiol.2014.04.002; 16. Parish T. Targeting mycobacterial proteolytic complexes with natural products Chem. Biol. 2014 21 437 438 10.1016/j.chembiol.2014.04.002 24766844 ||| ref [17] = [17]; PMID 25421483; doi:10.1128/AAC.04054-14; 17. Gao W. Kim J.Y. Anderson J.R. Akopian T. Hong S. Jin Y.Y. Kandror O. Kim J.W. Lee I.A. Lee S.Y. The cyclic peptide ecumicin targeting ClpC1 is active against Mycobacterium tuberculosis in vivo Ant ||| ref [18],[19] = [18]; PMID 21969594; doi:10.1073/pnas.1110385108; 18. Sass P. Josten M. Famulla K. Schiffer G. Sahl H.G. Hamoen L. Brotz-Oesterhelt H. Antibiotic acyldepsipeptides activate ClpP peptidase to degrade the cell division protein FtsZ Proc. Natl. Acad. Sc || [19]; PMID 22123255; doi:10.1128/JB.06142-11; 19. Ollinger J. O’Malley T. Kesicki E.A. Odingo J. Parish T. Validation of the Essential ClpP Protease in Mycobacterium tuberculosis as a Novel Drug Target J. Bacteriol. 2012 194 663 668 10.1128/JB.06 ||| ref [20] = [20]; PMID 22987724; doi:10.1002/emmm.201201689; 20. Hartkoorn R.C. Sala C. Neres J. Pojer F. Magnet S. Mukherjee R. Uplekar S. Boy-Rottger S. Altmann K.H. Cole S.T. Towards a new tuberculosis drug: Pyridomycin-nature’s isoniazid Embo. Mol. Med. 201 ||| ref [21] = [21]; PMID 10747933; doi:10.1074/jbc.M000569200; 21. Kremer L. Douglas J.D. Baulard A.R. Morehouse C. Guy M.R. Alland D. Dover L.G. Lakey J.H. Jacobs W.R. Brennan P.J. Thiolactomycin and related analogues as novel anti-mycobacterial agents targeting ||| ...
Conditions: anti-TB, cited from earlier work

For `C=C/C(C)=C/[C@@]1(C)SC(=O)C(C)=C1O` [Thiolactomycin], the MIC (target β-ketoacyl-ACP synthase, ref [21]) is given as 92.5 µM (≈ 19.5 µg/mL).

In the case of Cyclomarin A, the MIC (target ClpC1, ref [22],[23]) is listed as 0.3 to 2.5 µM.

In the case of Ecumicin, the MIC (target ClpC1, ref [17]) is listed as 0.13 to 0.3 µM.

In the case of Ilamycins, the MIC (target not given, ref [25]) is given as 0.0098 µM.

For Lassomycin, the MIC (target ClpC1, ref [15],[16]) is listed as 0.42 to 1.57 µM.

In the case of Teixobactin, the MIC (target lipid II, ref [24]) is listed as 0.125 µM.
